The subject of one series is LDL-C. Conditions: cited from earlier work.
For a further series, the system named is HDL-C. The conditions noted are these: cited from earlier work.
The conditions of series [1]: cited from earlier work; for Phase III clinical trial outcome (in words): anacetrapib: 30.000 patient REVEAL trial.
Another series relates to apolipoprotein B (ApoB). As to the kind of experiment: Phase 2 study of obicetrapib and ezetimibe in mild dyslipidaemia: ApoB. The conditions noted are these: mITT population, oral once daily. The series is classed as in vivo, human. The source says: (§1) Study drugs will be administered by the participant orally and once daily on Days 1 through 57. Study drugs should be administered at approximately the same time each morning, with food. On days with visits scheduled, study drugs should be administered with food following all fasted blood samples. If a participant forgets to take study drug on a given day, they should take the next dose as normal and should not take a double dose to make up for the forgotten dose.
(§2) Up to 2 weeks after the Screening Visit, participants will return to the site on Day 1 (Visit 2) to be randomized and begin treatment. Approximately 100 eligible participants (25 participants per treatment group) will be randomized in a 1:1:1:1 ratio to 1 of the following treatment groups: • Combination therapy: 5 mg obicetrapib+10 mg ezetimibe; • Obicetrapib monotherapy: 5 mg obicetrapib+placebo ezetimibe; • Ezetimibe monotherapy: placebo obicetrapib+10 mg ezetimibe; or • Placebo: placebo obicetrapib+placebo ezetimibe.
Similar MMRM models were developed to examine the percent change from Day 1 to Day 57 in LDL-C (for other pairwise treatment group comparisons beside the analysis specified for the primary efficacy endpoint, using the Friedewald formula) or ApoB. In order to maintain the overall Type 1 error rate, the secondary efficacy endpoints were tested sequentially at the 0.05 significance level according to the pre-specified order of hierarchy. This applied to the following analyses: • Percent change from Day 1 to Day 57 in LDL-C for the obicetrapib monotherapy group compared to the placebo group; • Percent change from Day 1 to Day 57 in ApoB for the combination therapy group compared to the placebo group; • Percent change from Day 1 to Day 57 in ApoB for the obicetrapib monotherapy group compared to the placebo group; • Percent change from Day 1 to Day 57 in LDL-C for combination therapy group compared to the ezetimibe monotherapy group; • Percent change from Day 1 to Day 57 in LDL-C for the obicetrapib monotherapy group compared to the ezetimibe monotherapy group; • Percent change from Day 1 to Day 57 in LDL-C, for the ezetimibe monotherapy group compared to the placebo group; and • Percent change from Day 1 to Day 57 in ApoB for the combination therapy group compared to the ezetimibe monotherapy group.

The nature of series [2]: Phase 2 study: safety and tolerability (adverse events). Type of series: in vivo, human. The source says: The Safety Population included all participants who received at least 1 dose of any study drug. Treatment classification was based on the actual treatment received. The Safety Population was the primary population used for the safety analyses.
The Safety Population was the primary population for the safety analyses. All safety endpoints are summarized descriptively. No statistical inference was applied to the safety endpoints.
AEs were categorized by primary system organ class (SOC) and preferred term (PT) as coded using the Medical Dictionary for Regulatory Activities (version 23.0) category designations. Summaries of AEs, including the count and percentage of participants who experienced an AE, are provided.
An overview of treatment-emergent adverse events (TEAEs) is provided, including counts and percentages of participants (and event counts).
Listings are presented specifically for TEAEs, treatment-emergent serious adverse events (TESAEs), and TEAEs leading to discontinuation of study drug.

The test system of series [3] is low-density lipoprotein cholesterol (LDL-C). As to the kind of experiment: Phase 2 study of obicetrapib and ezetimibe in mild dyslipidaemia: LDL-C by Friedewald formula. The series is classed as in vivo, human.
Source text: as §1, §2
LDL-C level was collected using the following 2 approaches: • 1. At each scheduled visit, LDL-C level was calculated using the Friedewald formula; and • 2. In addition, at baseline (Day 1) and at the end of the 8-week Treatment Period (Day 57), LDL-C was measured for all participants by preparative ultracentrifugation (PUC). Primary Efficacy Endpoint Primary analysis
The primary efficacy analysis of the percent change from Day 1 to Day 57 in LDL-C was performed using a mixed model for repeated measures (MMRM) approach. The analysis included fixed effects for treatment, visit, and treatment-by-visit interaction, along with a covariate of the baseline value as a continuous covariate. Randomization was stratified by categories of LDL-C value (<3.5 mmol/L [<135 mg/dL] or >3.5 mmol/L [≥135 mg/dL]) only to ensure similar distribution of LDL-C across all treatment groups; however, the MMRM model included the original scale of the LDL-C value as a continuous covariate. The Restricted Maximum Likelihood estimation approach was used with an unstructured covariance matrix. The least squares (LS) means, standard errors, and 2-sided 95% confidence intervals (CIs) for each treatment group, for the pairwise comparisons of the combination therapy, obicetrapib monotherapy, and ezetimibe monotherapy to placebo, and for the pairwise comparisons of combination therapy and obicetrapib monotherapy versus ezetimibe monotherapy are provided. The treatment comparison was performed using a 2-sided test at the α=0.05 level of significance.
Similar MMRM models were used for the exploratory efficacy endpoints. The proportion of participants at Day 57 that achieved LDL-C<2.6 mmol/L (<100 mg/dL), LDL-C<1.8 mmol/L (<70 mg/dL), and LDL-C<1.3 mmol/L (<50 mg/dL) were examined through Logistic Regression Models for binary variables with covariates of the treatment groups and the baseline variable.
This study was a placebo-controlled, double-blind, randomized Phase 2 study in participants with mild dyslipidemia to evaluate the efficacy, safety, and tolerability of obicetrapib and ezetimibe combination therapy. The primary efficacy endpoint was percent change from Day 1 to Day 57 in LDL-C for the obicetrapib 5 mg+ezetimibe 10 mg group compared to the placebo group.

[4] abbreviates: mITT population, mild dyslipidaemia, oral once daily, Day 57.
Where [5] appears, read: mITT population, oral once daily, baseline to Day 57.
The mark [6] stands for this setting: torcetrapib dosed at 60 mg, Phase III clinical trials.

Where two headings read alike, the source gives them in different places.

Data on 5 compounds can be found in US20240189311A1, “Combination Therapy of Obicetrapib and Ezetimibe for Use in Statin Intolerant Patients Suffering from Hyperlipidemia or Mixed Dyslipidaemia” (NEWAMSTERDAM PHARMA B.V., priority 2021, published 2024).

Take `CCC(CC)CC1(C(=O)Nc2ccccc2SC(=O)C(C)C)CCCCC1` [Dalcetrapib]: the “Effects on LDL-C concentrations (in words)” value in the series on LDL-C (dalcetrapib clinical trials) is “minimal effects”. In addition, the “Increase of HDL-C” value in the series with HDL-C (dalcetrapib clinical trials) is on record as 30-40%.
As to `Cc1cc(C)c2c(c1)[C@@H](N(Cc1cc(C(F)(F)F)cc(C(F)(F)F)c1)c1nnn(C)n1)CCCN2C[C@H]1CC[C@H](C(=O)O)CC1` [Evacetrapib], in series [1], the “Phase III clinical trial outcome (in words)” value is given as “failed to pass a futility interim analysis”.
Turning to `O=C1[C@H](CC[C@H](O)c2ccc(F)cc2)[C@@H](c2ccc(O)cc2)N1c1ccc(F)cc1` [Ezetimibe 10 mg, (3R,4S)-1-(4-fluorophenyl)-3-[(3 S)-3-(4-fluorophenyl)-3-hydroxypropyl]-4-(4-hydroxyphenyl)azetidin-2-one], the “Reduction of LDL-C levels when compared to placebo” value in the series with LDL-C (ezetimibe mono-therapy, patients with hypercholesterolemia) is given as “less than 20%”. Also, in the series on apolipoprotein B (ApoB) (mild dyslipidaemia, Day 57), the “ApoB at Day 57, mean” value is given as 94.8 mg/dL and the “ApoB at Day 57, median” value is listed as 94.0 mg/dL. Besides, in the series on apolipoprotein B (ApoB) (baseline to Day 57), the “Change from baseline to Day 57 in ApoB, mean” value is -9.5 mg/dL; the “Change from baseline to Day 57 in ApoB, median” value was -8.0 mg/dL; the “Percent change from baseline to Day 57 in ApoB, mean” value was −8.78%; the “Percent change from baseline to Day 57 in ApoB, median” value is recorded as −8.90%. Besides, in series [2] (Safety Population), the “Participants who experienced at least 1 TEAE, number” value is 8 participants; the “Participants who experienced at least 1 TEAE, percentage” value was determined as 28.6%; the “Participants who experienced at least 1 study drug-related TEAE, number” value turned out to be 3 participants; the “Participants who experienced at least 1 study drug-related TEAE, percentage” value is 10.7%. Also, in series [2] (Safety Population), the “Participants with a TEAE with a maximum severity of moderate, number” value was found to be 4 participants; the “Participants with a TEAE with a maximum severity of moderate, percentage” value stood at 14.3%; the “Participants with at least 1 TEAE that led to discontinuation of the study drug, number” value was 1 participants; the “Participants with at least 1 TEAE that led to discontinuation of the study drug, percentage” value is reported as 3.6%. Besides, the “Participants who experienced a TESAE / SAE, number” value in series [2] (hyperventilation and multiple fractures, both rated not related to the study drug) is “Two”. Besides, in series [2] (percentage of participants overall), the “Participants who experienced a TESAE, percentage of participants overall” value is 1.8%. Further, the “Participants who experienced a severe TEAE, number” value in series [2] (severe TEAE of multiple fractures) is listed as “One”. For the same compound, the “Participants who experienced a severe TEAE, percentage of all participants” value in series [2] (severe TEAE of multiple fractures, percentage of all participants) is recorded as 0.9%. In addition, in series [3] (Day 57), the “Number of participants that achieved LDL-C<70 mg/dL by Friedewald formula” value is reported as 1 participants, the “Number of participants that achieved LDL-C<100 mg/dL by Friedewald formula” value came to 8 participants, the “Percentage of participants that achieved LDL-C<70 mg/dL by Friedewald formula” value stood at 3.6% and the “Percentage of participants that achieved LDL-C<100 mg/dL by Friedewald formula” value turned out to be 28.6%. In series [3] (setting [4]), the “LDL-C by Friedewald formula at Day 57, mean” value amounted to 109.1 mg/dL and the “LDL-C by Friedewald formula at Day 57, median” value is on record as 109.0 mg/dL. In series [3] (setting [5]), the “Change from baseline to Day 57 in LDL-C by Friedewald formula, mean” value is -18.0 mg/dL; the “Change from baseline to Day 57 in LDL-C by Friedewald formula, median” value was -19.0 mg/dL; the “Percent change from baseline to Day 57 in LDL-C by Friedewald formula, mean” value is on record as −12.69%; the “Percent change from baseline to Day 57 in LDL-C by Friedewald formula, median” value was −14.80%.
As to `CCOC(=O)N1c2ccc(C(F)(F)F)cc2[C@@H](N(Cc2cc(C(F)(F)F)cc(C(F)(F)F)c2)C(=O)OC)C[C@H]1CC` [Torcetrapib], in the series on LDL-C (setting [6]), the “Decrease of LDL-C” value is given as 25%. For the same compound, in series [1] (torcetrapib, Phase III clinical trials), the “Safety concerns in clinical development (in words)” value was “unexpected increase in cardiovascular events and death”. The “Increase of HDL-C” value in the series on HDL-C (setting [6]) is 72%.
For `COc1cc(F)c(C(C)C)cc1-c1ccc(C(F)(F)F)cc1CN1C(=O)O[C@H](c2cc(C(F)(F)F)cc(C(F)(F)F)c2)[C@@H]1C` [anacetrapib], the “Phase III clinical trial outcome (in words)” value in series [1] is recorded as “reduced major cardiovascular events (MACE)”.
